These are literature values, as cited in US20250302750A1, “PHARMACEUTICAL COMPOSITION OF BEMPEDOIC ACID” (Renata Pharmaceuticals (Ireland) Ltd, priority 2022, published 2025).

For data set [1] the following is noted: solid state; per US 20180338922.

Structures are written as SMILES.

Take `CC(C)(CCCCCC(O)CCCCCC(C)(C)C(=O)O)C(=O)O` [Bempedoic acid]: the Solubility in water result is “poorly soluble”. For the same compound, in data set [1], the Flow characteristics entry is reported as “poor flow characteristics” and the Stickiness result is reported as “very sticky”.
